Article PMC7156458, “Synthetic biology based construction of biological activity-related library of fungal decalin-containing diterpenoid pyrones” (Nature Communications, 2020)

How the values were obtained:
Test in all cases: cells
Set-up in all cases: JFCR39 human cancer cell line panel, antiproliferative dose response (optical density), GI50
[1] = system: A549; conditions: Homo sapiens, A549
Experimental: (§1) Initially, we evaluated new DDP analogues for their antiproliferative activities across the panel of 39 human cancer cell lines, JFCR39[50],[51]. […] Purified DDPs was dissolved in DMSO (Specially Prepared Reagent, Nuclease and Protease tested, NACALAI, 09659-14) to prepare 5 mM solutions. The Each DDP solution (5 mM) was used for antiproliferative effects on cancer cell lines (Supplementary Notes 23, 24, 25, 26), biological activity against Drosophila (Supplementary Note 27), anti-HIV assay (Supplementary Note 28) and screening of amyloid Ab42 aggregation inhibitors (Supplementary Notes 29).

[2] = system: ACHN; conditions: Homo sapiens, ACHN
Experimental: as §1

[3] = system: DMS114; conditions: Homo sapiens, DMS-114
Experimental: as §1

[4] = system: DMS273; conditions: Homo sapiens, DMS-273
Experimental: as §1

[5] = system: HBC-4; conditions: HBC4
Experimental: as §1

[6] = system: HCC2998; conditions: Homo sapiens, HCC 2998
Experimental: as §1

[7] = system: HCT-116; conditions: Homo sapiens, HCT-116
Experimental: as §1

[8] = system: HT-29; conditions: Homo sapiens, HT-29
Experimental: as §1

[9] = system: LOX-IMVI; conditions: Homo sapiens, LOX IMVI
Experimental: as §1

[10] = system: MCF-7; conditions: Homo sapiens, MCF7
Experimental: as §1

[11] = system: MKN1; conditions: Homo sapiens, MKN-1
Experimental: as §1

[12] = system: MKN45; conditions: Homo sapiens, MKN-45
Experimental: as §1

[13] = system: MKN74; conditions: Homo sapiens, MKN-74
Experimental: as §1

[14] = system: NCI-H23; conditions: Homo sapiens, NCI-H23
Experimental: as §1

[15] = system: NCI-H522; conditions: Homo sapiens, NCI-H522
Experimental: as §1

[16] = system: OVCAR-3; conditions: Homo sapiens, OVCAR-3
Experimental: as §1

[17] = system: OVCAR-4; conditions: Homo sapiens, OVCAR-4
Experimental: as §1

[18] = system: SF-268; conditions: Homo sapiens, SF-268
Experimental: as §1

[19] = system: SF-295; conditions: Homo sapiens, SF-295
Experimental: as §1

[20] = system: SF-539; conditions: Homo sapiens, SF-539
Experimental: as §1

[21] = system: SK-OV-3; conditions: Homo sapiens, SK-OV-3
Experimental: as §1

[22] = system: SNB-78; conditions: Homo sapiens, SNB-78
Experimental: as §1

Row | SMILES | GI50 [1] | GI50 [2] | GI50 [3] | GI50 [4] | GI50 [5] | GI50 [6] | GI50 [7] | GI50 [8] | GI50 [9] | GI50 [10] | GI50 [11] | GI50 [12] | GI50 [13] | GI50 [14] | GI50 [15] | GI50 [16] | GI50 [17] | GI50 [18] | GI50 [19] | GI50 [20] | also measured
1 | C=C1CCC2C3(C)CC(C=C(C)C)OC3CCC2(C)C1Cc1c(OC)oc(C)c(C)c1=O (centres unmarked) [Compound 23] | 10.4 µM | 11.8 µM | 0.0552 µM | 0.265 µM | 13.2 µM | 12 µM | 0.995 µM | 10.3 µM | 0.604 µM | 1.01 µM | 13.2 µM | 11.1 µM | 4.22 µM | 0.228 µM | 0.721 µM | 1.47 µM | 7.04 µM | 8.62 µM | 1.12 µM | 5.57 µM | GI50 [21]: 10.8 µM; GI50 [22]: 12.3 µM
2 | C=C1CC[C@H]2[C@]3(C)C[C@H](C=C(C)C)O[C@H]3CC[C@]2(C)[C@@H]1Cc1c(OC)oc(C)c(C)c1=O [Compound 24] | 6.88 µM | 11.6 µM | 0.189 µM | 0.484 µM | 13.4 µM | 12.7 µM | 1.3 µM | 10.1 µM | 0.929 µM | 1.53 µM | 12.2 µM | 9.14 µM | 3.72 µM | 0.668 µM | 0.754 µM | 2.68 µM | 6.49 µM | 8.09 µM | 2.21 µM | 7.26 µM | GI50 [21]: 10.7 µM; GI50 [22]: 12.9 µM
